# Starred links: 1 amine or outer side, 2 acyl side, 3 side chain; linkers in the order of their positions; H or OH if unused. Positions of bridges follow the written chain, without caps; N, C: chain ends. Non-standard residues stand in square brackets, D forms with d. Residues, ends and D or L forms follow the SMILES beside them. *: point of attachment. X2 = CC1CCC(C(=O)[*:2])N1[*:1]; NMeV = CN[CH](C(=O)O)C(C)C; X1 = Cc1ccc(C(=O)*)c(N)c1O; Sar = CNCC(=O)O
# Tests used:
# [1] = test system: Aspergillus fumigatus IAM 2530; assay: Antimicrobial activity, serial two-fold agar dilution method; assay type: cell-based; conditions: Sabouraud dextrose agar
# Protocol: (§1) The antimicrobial activity of BU-3292T A and B was determined against aerobic and anaerobic bacteria and fungi by a serial two-fold agar dilution method. BU-3292T A and B are active against aerobic gram-positive bacteria, and weakly active against anaerobic gram-negative bacteria and fungi.
# [2] = test system: Bacillus subtilis PCI-219; assay: as above; assay type: cell-based; conditions: Nutrient agar
# Protocol: as §1
# [3] = test system: Bacteroides fragilis A22693; assay: as above; assay type: cell-based; conditions: GAM agar
# Protocol: as §1
# [4] = test system: Candida albicans IAM 4888; assay: as above; assay type: cell-based; conditions: Sabouraud dextrose agar
# Protocol: as §1
# [5] = test system: Clostridium difficile A21675; assay: as above; assay type: cell-based; conditions: GAM agar
# Protocol: as §1
# [6] = test system: Cryptococcus neoformans IAM 4519; assay: as above; assay type: cell-based; conditions: Sabouraud dextrose agar
# Protocol: as §1
# Escherichia coli NIHJ = assay: as above; assay type: cell-based; conditions: Nutrient agar
# Protocol: as §1
# [7] = test system: Fusarium moniliforme A2284; assay: as above; assay type: cell-based; conditions: Sabouraud dextrose agar
# Protocol: as §1
# [8] = test system: Klebsiella pneumoniae D11; assay: as above; assay type: cell-based; conditions: Nutrient agar
# Protocol: as §1
# Micrococcus luteus 1001 = assay: as above; assay type: cell-based; conditions: Nutrient agar
# Protocol: as §1
# Mucor spinosus IFO 5317 = assay: as above; assay type: cell-based
# Protocol: as §1
# [9] = test system: Propionibacterium acnes A21933; assay: as above; assay type: cell-based; conditions: GAM agar
# Protocol: as §1
# [10] = test system: Propionibacterium anaerobius A21905; assay: as above; assay type: cell-based; conditions: GAM agar
# Protocol: as §1
# Proteus mirabilis A9554 = assay: as above; assay type: cell-based; conditions: Nutrient agar
# Protocol: as §1
# Proteus vulgalis A9436 = assay: as above; assay type: cell-based; conditions: Nutrient agar
# Protocol: as §1
# [11] = test system: Pseudomonas aeruginosa A9930; assay: as above; assay type: cell-based; conditions: Nutrient agar
# Protocol: as §1
# [12] = test system: Staphylococcus aureus 209P; assay: as above; assay type: cell-based; conditions: Nutrient agar
# Protocol: as §1
# [13] = test system: Staphylococcus aureus smith; assay: as above; assay type: cell-based; conditions: Nutrient agar
# Protocol: as §1
# [14] = test system: Staphylococcus epidermidis D153; assay: as above; assay type: cell-based; conditions: Nutrient agar
# Protocol: as §1
# [15] = test system: Streptococcus faecalis A9612; assay: as above; assay type: cell-based; conditions: Nutrient agar
# Protocol: as §1
# [16] = test system: Streptococcus pyogenes A20201; assay: as above; assay type: cell-based; conditions: Nutrient agar
# Protocol: as §1
# [17] = test system: Trichophyton mentagrophytes D155; assay: as above; assay type: cell-based; conditions: Sabouraud dextrose agar
# Protocol: as §1
# [18] = test system: Clostridium perfringens A9635; assay type: cell-based; conditions: GAM agar
# [19] = test system: B16-F10 (murine melanoma) cells; assay: In vitro cytotoxicity, neutral red staining; assay type: cell-based
# Protocol: (§2) BU-3292T components A and B were tested for in vitro cytotoxicity against murine and human tumor cells and for in vivo antitumor activity in mice. Actinomycin D was used as a reference compound in both in vitro and in vivo experiments. B16-F10 (murine melanoma) and Moser (human colorectal carcinoma) cells were grown to the logarithmic phase in enriched Eagle minimum essential medium (MEM) supplemented with fetal calf serum (FCS, 10%) and kanamycin (60 mcg/ml), harvested and inoculated into wells of a 96-well microtiter plate with test materials at the concentrations of 3.0×10^4 and 6.0×10^4 cells/ml, respectively. They were incubated at 37° C. in humidified atmosphere of 5% CO2 and 95% air for 72 hours. The cytotoxic activity was determined colorimetrically at 540 nm after staining viable cells with neutral red. […] Inhibitory effects of BU-3292T component A on macromolecule (DNA, RNA and protein) synthesis were determined in vitro. Cultured L1210 murine leukemia cells (5×10^5 cells/ml) were incubated with test materials at 37° C. for 15 minutes and then further incubated for 60 minutes after the addition of labelled precursor, ^3 H-thymidine, ^14 C-uridine or ^3 H-leucine, into the cultured mixtures. After washing with chilled 5% trichloroacetic acid solution, the radioactivity incorporated into the acid-insoluble fraction of the tumor cells was determined in a liquid scintillation counter. […] In vivo antitumor activities of BU-3292T components A and B were tested in tumor-bearing female CDF mice. After the intraperitoneal implantation of diluted ascitic fluid with 1.0 ×10^6 lymphocytic leukemia P388 cells into the mice, test compounds were administered intraperitoneally once a day on days 1, 2 and 3 (QD×3).
# [20] = test system: Moser (human colorectal carcinoma) cells; assay: In vitro cytotoxicity, neutral red staining; assay type: cell-based; conditions: 72 hours
# Protocol: as §2
# [21] = test system: DNA synthesis in L1210 leukemia cells; assay: Inhibition of macromolecule synthesis, 3H-thymidine incorporation; assay type: cell-based, murine
# Protocol: BU-3292T components A and B were tested for in vitro cytotoxicity against murine and human tumor cells and for in vivo antitumor activity in mice. Actinomycin D was used as a reference compound in both in vitro and in vivo experiments. B16-F10 (murine melanoma) and Moser (human colorectal carcinoma) cells were grown to the logarithmic phase in enriched Eagle minimum essential medium (MEM) supplemented with fetal calf serum (FCS, 10%) and kanamycin (60 mcg/ml), harvested and inoculated into wells of a 96-well microtiter plate with test materials at the concentrations of 3.0×10^4 and 6.0×10^4 cells/ml, respectively. They were incubated at 37° C. in humidified atmosphere of 5% CO2 and 95% air for 72 hours. The cytotoxic activity was determined colorimetrically at 540 nm after staining viable cells with neutral red. […] Inhibitory effects of BU-3292T component A on macromolecule (DNA, RNA and protein) synthesis were determined in vitro. […] After washing with chilled 5% trichloroacetic acid solution, the radioactivity incorporated into the acid-insoluble fraction of the tumor cells was determined in a liquid scintillation counter. […]
# [22] = test system: RNA synthesis in L1210 leukemia cells; assay: Inhibition of macromolecule synthesis, 14C-uridine incorporation; assay type: cell-based, murine
# Protocol: as §2
# [23] = test system: Protein synthesis in L1210 leukemia cells; assay: Inhibition of macromolecule synthesis, 3H-leucine incorporation; assay type: cell-based, murine
# Protocol: as §2
# [24] = test system: lymphocytic leukemia P388; assay: Antitumor activity against P388 leukemia (ip); assay type: in vivo, mice; conditions: for MST (Median survival time) / T/C: QD × 3, ip
# Protocol: as §2
# [25] = Body weight change in P388-bearing mice; conditions: QD × 3, ip
# Protocol: as §2
# Solubility = assay type: physicochemical
# From the text: BU-3292T A is isolated as a white amorphous powder, while BU-3292T B is an orange-red powder. […] The compounds give positive responses to iodine and Rydone-Smith reagents, but negative responses to Sakaguchi, ferric chloride, ninhydrin and anthrone reagents. […] The IR spectra of BU-3292T A and B are illustrated in FIGS. 1 and 2, respectively.
# [26] = test system: aerobic gram-positive bacteria; assay: Antimicrobial activity, agar dilution, summary in words; assay type: cell-based; conditions: summary of Table 6
# Protocol: as §1
# [27] = test system: anaerobic gram-negative bacteria and fungi; assay: as above; assay type: cell-based; conditions: summary of Table 6
# Protocol: as §1
# gram-negative bacteria = assay: as above; assay type: cell-based; conditions: summary of Table 6
# Protocol: as §1
smiles,measurement,setting,value
Cc1ccc(C(=O)NC2C(=O)NC(C(C)C)C(=O)N3C(C)CCC3C(=O)N(C)CC(=O)N(C)C(C(C)C)C(=O)OC2C)c(N)c1O (stereo not shown) [BU-3292T A] (X1-TV[X2][Sar][NMeV]; ester 1-C; configuration not given here),MIC,[1],> 100 µg/mL
same,MIC,[2],0.4 µg/mL
same,MIC,[3],> 100 µg/mL
same,MIC,[4],> 100 µg/mL
same,MIC,[5],> 100 µg/mL
same,MIC,[6],100 µg/mL
same,MIC,Escherichia coli NIHJ,> 100 µg/mL
same,MIC,[7],> 100 µg/mL
same,MIC,[8],> 100 µg/mL
same,MIC,Micrococcus luteus 1001,0.4 µg/mL
same,MIC,"Mucor spinosus IFO 5317; Mucor spinosus IFO 5317, Sabouraud dextrose agar",12.5 µg/mL
same,MIC,Mucor spinosus IFO 5317; in vitro against Mucor spinosus IF05317,12.5 µg/mL
same,MIC,[9],100 µg/mL
same,MIC,[10],100 µg/mL
same,MIC,Proteus mirabilis A9554,> 100 µg/mL
same,MIC,Proteus vulgalis A9436,> 100 µg/mL
same,MIC,[11],> 100 µg/mL
same,MIC,[12],1.6 µg/mL
same,MIC,[13],1.6 µg/mL
same,MIC,[14],1.6 µg/mL
same,MIC,[15],0.8 µg/mL
same,MIC,[16],1.6 µg/mL
same,MIC,[17],> 100 µg/mL
same,MIC,[18],100 µg/mL
same,IC50,"[19]; B16-F10, 72 hours",0.007 µg/mL
same,times stronger against B16-F10 cells than against Moser cells,"[19]; cytotoxic activity, B16-F10 versus Moser",approximately 10 times
same,IC50,[20],0.09 µg/mL
same,IC50 DNA,[21],80 µg/mL
same,inhibited RNA synthesis times more than DNA synthesis,"[22]; L1210 cells, RNA versus DNA synthesis",approximately 300 times
same,IC50 RNA,"[22]; L1210 leukemia cells, 14C-uridine",0.23 µg/mL
same,inhibitory effect on protein synthesis,"[23]; L1210 cells, at 100 mcg/ml, the highest concentration tested",no inhibitory effect
same,IC50 Protein,"[23]; L1210 leukemia cells, 3H-leucine",> 100 µg/mL
same,MST (Median survival time),[24]; 0.03 mg/kg/day,11.0 days
same,T/C,[24]; 0.03 mg/kg/day,110%
same,MST (Median survival time),[24]; 0.1 mg/kg/day,11.0 days
same,T/C,[24]; 0.1 mg/kg/day,110%
same,MST (Median survival time),[24]; 0.3 mg/kg/day,12.0 days
same,T/C,[24]; 0.3 mg/kg/day,120%
same,MST (Median survival time),[24]; 1 mg/kg/day,13.0 days
same,T/C,[24]; 1 mg/kg/day,130%
same,MST (Median survival time),[24]; 3 mg/kg/day,14.0 days
same,T/C,[24]; 3 mg/kg/day,140%
same,MST (Median survival time),[24]; 10 mg/kg/day,16.0 days
same,T/C,[24]; 10 mg/kg/day,160%
same,MST (Median survival time),[24]; 30 mg/kg/day,Tox
same,T/C,[24]; 30 mg/kg/day,Tox
same,maximum T/C value,"[24]; anti-P388 leukemic activity, QD×3, ip",160%
same,Body weight change on day 4,[25]; 0.03 mg/kg/day,+1.3 g
same,Body weight change on day 4,[25]; 0.1 mg/kg/day,+1.3 g
same,Body weight change on day 4,[25]; 0.3 mg/kg/day,+1.3 g
same,Body weight change on day 4,[25]; 1 mg/kg/day,+0.5 g
same,Body weight change on day 4,[25]; 3 mg/kg/day,+0.3 g
same,Body weight change on day 4,[25]; 10 mg/kg/day,-3.0 g
same,"solubility in dimethyl sulfoxide, dimethylformamide, methanol, ethyl acetate and chloroform","Solubility; dimethyl sulfoxide, dimethylformamide, methanol, ethyl acetate, chloroform",readily soluble
same,solubility in water and other organic solvents,Solubility; water and other organic solvents,insoluble
same,activity against aerobic gram-positive bacteria,[26],active
same,activity against anaerobic gram-negative bacteria and fungi,[27],weakly active
same,activity against gram-negative bacteria,gram-negative bacteria,inactive
